How the values were obtained:
γδT cells [1] = experiment: Comparison of compound 7 with zoledronate: proliferation and purity of γδT cells (IL-2 culture); format: cell-based, human; details: for effect on cell proliferation: Day 8, IL-2 300 U/mL
Procedure: Peripheral blood monocytes were collected from healthy subjects (n=8, HD1 to HD8) in two experiments (n=4 in each experiment). On Day 0, 1.5×10^6 of the collected peripheral blood monocytes were added to each well of 24-well plate. […] Then, on Day 1, IL-2 (300 U/mL) was added. The IL-2 is a cytokine used for the proliferation of the γδT cells according to the reports (non-patent documents 5 and 6). On Day 6, the cells of one well were diluted 2-fold into two wells. The number of cells was counted. On Day 7, the cells of two wells were diluted 2-fold into four wells, and IL-2 (300 U/mL) was further added. On Day 8, half-volume (about 3 mL) of the cells were diluted 6-fold to 18 mL, and cultured in a T75 flask. On Day 8 and Day 11, the number of cells was counted and cell purity was measured by flow cytometry analysis.

γδT cells [2] = experiment: Proliferation of γδT cells from peripheral blood monocytes with compound 7, IL-7 and IL-15; format: cell-based, human; details: for ratio of the γδT cells: Day 11
Procedure: The monocytes were prepared from peripheral blood of two healthy subjects by Ficoll. Personal agreement for the blood collection was achieved based on the research ethics code of the medical school of Mie University. The monocytes adjusted to 1.5×10^6 cells/mL with the culture solution of Yssel containing 10% human AB serum were cultured for one day in the presence of tetrakispivaloyloxymethyl 2-(thiazole-2-ylamino) ethylidene-1,1-bisphosphonate (compound 7, 1 μM), and then added with 25 ng/mL of IL-7 (Miltenyi Biotec, catalog number: 170-076-111) and 25 ng/mL of IL-15 (Miltenyi Biotec, catalog number: 170-076-114), and further cultured for 10 days. The frequency of the γδT cells in the monocyte population were analyzed by flow cytometry (FACSCANTO II, Becton Dickinson). As a result, the ratio of the γδT cells at the start of culture (Day 0) was 2.7% for donor 1 (HD1) and 1.7% for donor 2 (HD2), respectively. […] Peripheral blood of healthy human normally contains 1 to 3% of the γδT cells. However, approximately 1×10^8 of γδT cell populations could be prepared in high-purity from 1.5 mL of peripheral blood.
A culture solution of Yssel containing 10% human AB serum was used as the culture solution. As a result, rapid cell proliferation was observed from about Day 8 after the culture. The number of cells on Day 13 was 3×10^8, which was about 5000 times (FIG. 1B).
As comparison, IL-7 and IL-15 in the culture solution were replaced by IL-2 (PROLEUKIN, Chiron Therapeutics), and monocytes were cultured.

[3] = compound 7 1 μM vs zoledronate 5 μM
[4] = compound 7 1 μM, IL-7 and IL-15 25 ng/mL

Compound: CC(C)(C)C(=O)OCOP(=O)(OCOC(=O)C(C)(C)C)C(CNc1nccs1)P(=O)(OCOC(=O)C(C)(C)C)OCOC(=O)C(C)(C)C [compound 7, tetrakispivaloyloxymethyl 2-(thiazole-2-ylamino)ethylidene-1,1-bisphosphonate]
- effect on cell proliferation (γδT cells [1]; [3]): almost no difference
- frequency of the γδT cells in lymphocyte fraction (P1) (Vd2/P1) (γδT cells [1]; Day 8 and Day 11, compared to the zoledronate treatment group, t test): significantly higher
- cell proliferation-stimulating effect compared to zoledronate (γδT cells [1]; Day 11, Experiment 1, subjects HD1 to HD4, compound 7 1 μM vs zoledronate 5 μM): strongly recognized
- cell proliferation-stimulating effect compared to zoledronate (γδT cells [1]; Day 11, Experiment 2, subject): the same level
- cell proliferation-stimulating effect compared to zoledronate (γδT cells [1]; Day 11, Experiment 2, subject HD8): weak
- cell proliferation-stimulating effect compared to zoledronate (γδT cells [1]; Day 11, Experiment 2, subjects HD6 and HD7): greater
- proliferation of γδT cells compared to zoledronate, average (γδT cells [1]; Day 11, Experiments 1 and 2, n=8, p=0.008, t test): significantly excellent
- frequency of the γδT cells in CD3 positive cells (Vd2/CD3) (γδT cells [1]; compared to the zoledronate treatment group, t test): significantly higher
- start of rapid cell proliferation (γδT cells [2]; [4]): ~8 days
- γδT cell populations prepared in high-purity from 1.5 mL of peripheral blood (γδT cells [2]; [4]): approximately 1×10^8
- ratio of the γδT cells (γδT cells [2]; donor 1 (HD1), compound 7 1 μM, IL-7 and IL-15 25 ng/mL, 2.7% at Day 0): 97.1%
- ratio of the γδT cells (γδT cells [2]; donor 2 (HD2), compound 7 1 μM, IL-7 and IL-15 25 ng/mL, 1.7% at Day 0): 94.5%
- number of cells on Day 13 (γδT cells [2]; from 3×10^6 monocytes (3 mL peripheral blood), compound 7 1 μM, IL-7 and IL-15 25 ng/mL): 3×10^8
- fold increase of cells on Day 13 (γδT cells [2]; from 3×10^6 monocytes, compound 7 1 μM, IL-7 and IL-15 25 ng/mL): about 5000 times

Compound: O=P(O)(O)C(O)(Cn1ccnc1)P(=O)(O)O [zoledronate, reference compound]
- effect on cell proliferation (γδT cells [1]; [3]): almost no difference

Compound: IL-2: interleukin-2 (PROLEUKIN, Chiron Therapeutics), cytokine used for proliferation of γδT cells
- effect of promoting cell proliferation by IL-7 and IL-15 on further addition of IL-2 (γδT cells [2]; monocytes stimulated with compound 7): not further increased
